# Read-outs that look alike come from different tables or passages of the source.
# How the values were obtained:
# Type in all cases: cell-based
# AGS cells = assay: AGS cell proliferation (CellTiter-Glo); details: AGS gastric carcinoma [heterozygous G12D], 72 hr, 0.5% DMSO, read-out: CTG(IC50) ABS-72 H(nM) AGS
# Description: The following cancer cell lines were employed: AGS gastric carcinoma [heterozygous G12D](ATCC, CRL-1739); A-427 lung carcinoma [heterozygous G12D](ATCC, HTB-53); ASPC1 pancreatic adenocarcinoma [homozygous G12D](ATCC, CRL-1682) and SW 1990 pancreatic adenocarcinoma [homozygous G12D](ATCC CRL-2172). Cell lines were cultured essentially according to ATCC recommendations.
# (§1) AGS, A-427, ASPC1, SW 1990, and GP2D cells were plated in 96-well tissue culture plates at 4,000 cells/well and incubated at 37° […] for 72 hr in 100 μl of media. 3-old serial dilutions of each test compound were prepared ranging from 20 μM to 1.02 nM. Each cell line was then treated with test compounds at various concentrations with a final concentration of 0.5% DMSO/well, and then incubated at 37° C./5% CO2 for 72 hr. 100 μl of CellTiter-Glo® Reagent (Promega Corporation, Madison, WI) was added to each well and processed according manufacturer's protocol. Results were analyzed and IC50 values were calculated in GraphPad 7 software. AGS proliferation assay: A. EC50<100 nM; B. EC50=100-1000 nM; C. EC50>1000 nM; GP2D proliferation assay: A. EC50<100 nM; B. EC50=100-1000 nM; C. EC50>1000 nM; MKN1 proliferation assay: A. EC50<100 nM; B. EC50=100-1000 nM; C. EC50>1000 nM;
# GP2D cells = assay: GP2D cell proliferation (CellTiter-Glo); details: 72 hr, 0.5% DMSO, read-out: CTG(IC50) ABS-72 H(nM) GP2D
# Description: as §1
# MKN1 cells = assay: MKN1 cell proliferation (CellTiter-Glo); details: 0.5% DMSO, read-out: CTG(IC50) ABS-72 H(nM) MKN1
# Description: as §1
Compound,IC50 (AGS cells; Homo sapiens) [nM],"IC50 (MKN1 cells; Homo sapiens, MKN-1, 72 hr) [nM]",IC50 (AGS cells) [nM],IC50 (MKN1 cells; 72 hr) [nM],IC50 (GP2D cells) [nM]
C#Cc1c(F)ccc2cc(O)cc(-c3nc(OC)c4c(N5CC6CCC(C5)N6CC(F)F)nc(OCC5(CN6CC7CC7C6)CC5)nc4c3F)c12 (centres unmarked) [Compound 13],100 to 1000,> 1000,,,100 to 1000
C#Cc1c(F)ccc2cc(O)cc(-c3nc(OC)c4c(N5CC6CCC(C5)N6CCOC)nc(OCC5(CN6CC7CC7C6)CC5)nc4c3F)c12 (centres unmarked) [Compound 5],100 to 1000,> 1000,,,< 100
C#Cc1c(F)ccc2cc(O)cc(-c3nc(OC)c4c(N5CC6CCC(C5)N6CCC(=O)O)nc(OCC5(CN6CCC(F)CC6)CC5)nc4c3F)c12 [Compound 16],> 1000,> 1000,,,100 to 1000
C#Cc1c(F)ccc2cc(O)cc(-c3nc(OC)c4c(N5CC6CCC(C5)N6CC(F)(F)F)nc(OCC5(CN6CC7CC7C6)CC5)nc4c3F)c12 (centres unmarked) [Compound 4],> 1000,> 1000,,,100 to 1000
C#Cc1c(F)ccc2cc(O)cc(-c3nc(OC)c4c(N5CC6CCC(C5)N6CCC#N)nc(OCC5(CN6CC7CC7C6)CC5)nc4c3F)c12 (centres unmarked) [Compound 3],100 to 1000,> 1000,,,< 100
C#Cc1c(F)ccc2cc(O)cc(-c3nc(OC)c4c(N5CC6CCC(C5)N6CCCO)nc(OCC5(CN6CC7CC7C6)CC5)nc4c3F)c12 (centres unmarked) [Compound 7],100 to 1000,100 to 1000,,,< 100
C#Cc1c(F)ccc2cc(O)cc(-c3nc(OC)c4c(N5CC6CCC(C5)N6CCCF)nc(OCC5(CN6CCC(F)CC6)CC5)nc4c3F)c12 [Compound 17],100 to 1000,> 1000,,,< 100
C#Cc1c(F)ccc2cc(O)cc(-c3nc(OC)c4c(N5CC6CCC(C5)N6CCO)nc(OCC5(CN6CC7CC7C6)CC5)nc4c3F)c12 (centres unmarked) [Compound 6],100 to 1000,100 to 1000,,,< 100
C#Cc1c(F)ccc2cc(O)cc(-c3nc(OC)c4c(N5CC6CCC(C5)N6C(C)CCC#N)nc(OCC5(CN6CC7CC7C6)CC5)nc4c3F)c12 (centres unmarked) [Compound 15],100 to 1000,> 1000,,,> 1000
[2H]C([2H])([2H])Oc1nc(-c2cc(O)cc3ccc(F)c(C#C)c23)c(F)c2nc(OCC3(CN4CC5CC5C4)CC3)nc(N3CC4CCC(C3)N4C#N)c12 (centres unmarked) [Compound 10],100 to 1000,100 to 1000,,,< 100
"2-(3-(2-[(1-(3-azabicyclo[3.1.0]hexan-3-ylmethylcyclopropyl) methoxy]-7-(8-ethynyl-7-fluoro-3-hydroxynaphthalen-1-yl)-8-fluoro-5-methoxypyrido[4,3-d]pyrimidin-4-yl-3,8-diazabicyclo[3.2.1]octan-8-yl)acetonitrile [Compound 1]",,,< 100,> 1000,< 100
C#Cc1c(F)ccc2cc(O)cc(-c3nc(OC)c4c(N5CC6CCC(C5)N6CC(=O)O)nc(OCC5(CN6CCC(F)CC6)CC5)nc4c3F)c12 [Compound 18],> 1000,> 1000,,,

# Now from value to compound, other results behind:
IC50 (AGS cells; Homo sapiens) [nM],"IC50 (MKN1 cells; Homo sapiens, MKN-1, 72 hr) [nM]",IC50 (AGS cells) [nM],IC50 (MKN1 cells; 72 hr) [nM],Compound,IC50 (GP2D cells) [nM]
< 100,100 to 1000,,,C#Cc1c(F)ccc2cc(O)cc(-c3nc(OC)c4c(N5CC6CCC(C5)N6C(=O)C#N)nc(OCC5(CN6CC7CC7C6)CC5)nc4c3F)c12 (centres unmarked) [Compound 2],< 100
< 100,100 to 1000,,,C#Cc1c(F)ccc2cc(O)cc(-c3nc(OC)c4c(N5CC6CCC(C5)N6CCCC#N)nc(OCC5(CN6CC7CC7C6)CC5)nc4c3F)c12 (centres unmarked) [Compound 14],< 100
< 100,> 1000,,,C#Cc1c(F)ccc2cc(O)cc(-c3nc(OC)c4c(N5CC6CCC(C5)N6CC#N)nc(OC[C@]56CCCN5C[C@@H](F)C6)nc4c3F)c12 [Compound 8],< 100
< 100,> 1000,,,C#CCN1C2CCC1CN(c1nc(OCC3(CN4CC5CC5C4)CC3)nc3c(F)c(-c4cc(O)cc5ccc(F)c(C#C)c45)nc(OC)c13)C2 (centres unmarked) [Compound 9],< 100
< 100,100 to 1000,,,[2H]C([2H])([2H])Oc1nc(-c2cc(O)cc3ccc(F)c(C#C)c23)c(F)c2nc(OCC3(CN4CC5CC5C4)CC3)nc(N3CC4CCC(C3)N4CC#N)c12 (centres unmarked) [Compound 11],< 100
< 100,> 1000,,,C#Cc1c(F)ccc2cc(O)cc(-c3nc(OC)c4c(N5CC6CCC(C5)N6CC(C)=O)nc(OCC5(CN6CC7CC7C6)CC5)nc4c3F)c12 (centres unmarked) [Compound 12],< 100
